Tested on: Vibrio harveyi MM32, AI-2 induced luminescence, 5 h
Test: inhibitors of AI-2-induced luminescence in V. harveyi MM32, dose response, mechanism study for V. harveyi quorum sensing inhibitors, strain MM32, dry powder (AID 493118)

| SMILES | AC50 [nM] |
| --- | --- |
| O=C1C=C/C(=C/Br)O1 | 4330 |
| COc1cc(NC(=O)CN2C(=O)NC(c3ccccc3)(c3ccccc3)C2=O)cc(OC)c1 | 615 |
| Cn1cnc(S(=O)(=O)Nc2ccc(OC(F)(F)F)cc2)c1 | 1950 |
| C=Cn1c(C(=O)O)ccc1-c1ccc(CC)cc1 | 2140 |
| Cc1cccc(NS(=O)(=O)c2ccc(Oc3ccccc3)cc2)n1 | 898 |
| CCc1ccc(S(=O)(=O)Nc2ccc(Br)cn2)cc1 | 1400 |
